From patent US20010004643A1, “Pharmaceutical composition with sotalol combination and their use in treatment of cardiac ailments” (priority 1999, published 2001)
Marks after values point to notes of the source that are not given here.

Assays:
[1] = system: beta adrenergic blockade, isolated right auricle preparation of rabbit; experiment: Beta blocking potency (pA2 against isoprenaline) in isolated rabbit right auricle; details: isoprenaline chronotropic response, Schild's plot
Procedure: Estimation of the beta blockade of various ratios of d- and l- isomers of sotalol was carried out in the isolated right auricle preparation of rabbit. The spontaneously beating right atrium was dissected and mounted in a 20 ml tissue bath. The resting tension on the atria was set at 1 g. The contractions were recorded using a force displacement transducer. The spontaneous contractions of the right atria were recorded isometrically and the heart rate was obtained as a derived parameter using a ratemeter that gave the output in beats per minute. Six different ratios of d and l isomers were investigated (1:1, 2:1, 3:1, 4:1, 5:1 and 1:0). Dose-response-curves (DRC) for isoprenaline in the isolated atria, using the chronotropic response were determined by cumulative addition of isoprenaline. The pA2 values of each of the ratios were estimated using the classical Schild's plot (Schild, 1957) and the values are shown in Table 1.

[2] = system: ouabain induced arrhythmia (VT, VF, mortality); experiment: Ouabain induced arrhythmia model in guinea pig; type: in vivo; details: for % INCIDENCE OF MORTALITY: mortality at 60 min; for deaths due to conduction block (60 min), actual incidence (value in parenthesis) / deaths due to tachyarrhythmia (60 min), actual incidence (value in parenthesis): number of animals; for actual incidence of VF (value in parenthesis) / actual incidence of VT (value in parenthesis) / actual incidence of mortality (value in parenthesis): number of animals of the group; for % INCIDENCE OF VF / % INCIDENCE OF VT: ouabain 240 μg/kg in three doses, observed one hour; for DEATHS DUE TO CONDUCTION BLOCK (60 MIN) Percentage / DEATHS DUE TO TACHYARRHYTHMIA (60 MIN) Percentage: percentage deaths out of total mortality; for actual incidence of mortality (value in parenthesis): 60 min
Description: Method: Guinea pigs (Dunken Hartley) of either sex weighing between 400 and 500 g were used for the study. The animals were anesthetized with urethane (1.25 g/kg. i.p.). The left common carotid artery and left jugular vein were cannulated for arterial blood pressure monitoring and intravenous access respectively. Lead II electrocardiogram, arterial blood pressure, mean arterial blood pressure (MABP), heart rate were monitored throughout the experiment.
After initial surgical preparations and allowing 30 minutes for the animal to stabilise the first dose of ouabain (90 μg/kg) was administered over a period of one minute. After the interval of thirty minutes, second dose of ouabain (60 μg/kg) was administered over a period of one minute. One minute after this dose, 0.5 ml saline (in control experiments) was administered over a period of one minute. After an interval of 10 minutes a third dose of ouabain (90 μg/kg) was administered over a period of one minute. […] The test compounds were administered to animals in test group in place of saline to evaluate their antiarrhythmic potential. From the ECG recordings, the incidence of VT, VF and mortality were recorded. The doses of ratios of sotalol isomers studied were 0.1, 0.5 and 2.5 mg/kg.
Interpretation of ECG recordings: Minor disturbance in rhythm was not considered while evaluating ventricular tachyarrhythmias. A run of more than 3 ventricular ectopic beats having wide QRS complexes associated with partial haemodynamic collapse was considered as Ventricular Tachycardia (VT). Total morphological irregularity of repetitive complexes for at least six cycles associated with complete haemodynamic collapse was considered as Ventricular Fibrillation (VF). Successful arrhythmia protection was defined as no occurrence of VT and VF from the injection of saline/test drug till the end of the experiment.
Statistics: Chi square test with continuity correction at 95% confidence limit was applied to find out the statistical significance between control and test groups for incidence of VT, VF and mortality. Whenever, any of the value in a cell was less than 5, Fischer's exact probability test was used.
Results: Different ratios of sotalol in the dose range from 0.02 mg/kg to 12.5 mg/kg were studied in individual groups of animals. In all 18 groups were studied and at least 6 animals were used in each group. In control animals ouabain 240 μg/kg in three divided doses induced reproducible ventricular tachyarrhythmias in guinea pigs. It was observed that ventricular arrhythmias appeared after the administration of the third dose. Guinea pigs which responded early i.e. before or within 1 min. of administration of the second dose, were considered early responders and were not included in the study. […] In the study, control experiments were carried out randomly interspersed in test groups. Among the 42 control animals the incidence of VT was 81%, incidence of VF was 71.4% and the incidence of mortality at 60 minutes was 61.9%.

Question: For `CC(C)NCC(O)c1ccc(NS(C)(=O)=O)cc1` (racemic) [dl-SOTALOL, N-[4-[1-hydroxy-2-[(1-methylethyl)amino]ethyl]phenyl] methane sulfonamide], which “pA2 Mean” value [1] is on record?
Answer: 6.48

Question: And the “% INCIDENCE OF MORTALITY” value ([2]; 0.02 mg/kg)?
Answer: 16.6%

Question: What about the “deaths due to conduction block (60 min), actual incidence (value in parenthesis)” value ([2]; 0.02 mg/kg) of the same compound?
Answer: (0)

Question: And the “deaths due to tachyarrhythmia (60 min), actual incidence (value in parenthesis)” value ([2]; 0.02 mg/kg)?
Answer: (1)

Question: And the “actual incidence of VF (value in parenthesis)” value (“actual incidence of VF” below) ([2]; 0.02 mg/kg)?
Answer: (5)

Question: And the “actual incidence of VT (value in parenthesis)” value (“actual incidence of VT” below) ([2]; 0.02 mg/kg)?
Answer: (5)

Question: What about the “% INCIDENCE OF VF” value ([2]; 0.02 mg/kg) of the same compound?
Answer: 83.3%

Question: And the “% INCIDENCE OF VT” value ([2]; 0.02 mg/kg)?
Answer: 83.3%

Question: And the “DEATHS DUE TO CONDUCTION BLOCK (60 MIN) Percentage” value ([2]; 0.02 mg/kg)?
Answer: 00.0%

Question: What about the “DEATHS DUE TO TACHYARRHYTHMIA (60 MIN) Percentage” value ([2]; 0.02 mg/kg) of the same compound?
Answer: 100.0%

Question: What about the “actual incidence of mortality (value in parenthesis)” value (“actual incidence of mortality” below) ([2]; 0.1 mg/kg) of the same compound?
Answer: (2)

Question: What about the “% INCIDENCE OF MORTALITY” value ([2]; 0.1 mg/kg) of the same compound?
Answer: 33.3%

Question: And the “deaths due to conduction block (60 min), actual incidence (value in parenthesis)” value ([2]; 0.1 mg/kg)?
Answer: (1)

Question: And the “deaths due to tachyarrhythmia (60 min), actual incidence (value in parenthesis)” value ([2]; 0.1 mg/kg)?
Answer: (1)

Question: And the “actual incidence of VF” value ([2]; 0.1 mg/kg)?
Answer: (2)

Question: And the “actual incidence of VT” value ([2]; 0.1 mg/kg)?
Answer: (2)*

Question: What about the “% INCIDENCE OF VF” value ([2]; 0.1 mg/kg) of the same compound?
Answer: 33.3%

Question: What about the “% INCIDENCE OF VT” value ([2]; 0.1 mg/kg) of the same compound?
Answer: 33.3%

Question: What about the “DEATHS DUE TO CONDUCTION BLOCK (60 MIN) Percentage” value ([2]; 0.1 mg/kg) of the same compound?
Answer: 50.0%

Question: And the “DEATHS DUE TO TACHYARRHYTHMIA (60 MIN) Percentage” value ([2]; 0.1 mg/kg)?
Answer: 50.0%

Question: And the “actual incidence of mortality” value ([2]; 0.5 mg/kg)?
Answer: (3)

Question: And the “% INCIDENCE OF MORTALITY” value ([2]; 0.5 mg/kg)?
Answer: 50.0%

Question: And the “deaths due to conduction block (60 min), actual incidence (value in parenthesis)” value ([2]; 0.5 mg/kg)?
Answer: (3)

Question: What about the “deaths due to tachyarrhythmia (60 min), actual incidence (value in parenthesis)” value ([2]; 0.5 mg/kg) of the same compound?
Answer: (0)

Question: And the “actual incidence of VF” value ([2]; 0.5 mg/kg)?
Answer: (2)

Question: What about the “actual incidence of VT” value ([2]; 0.5 mg/kg) of the same compound?
Answer: (2)*

Question: What about the “% INCIDENCE OF VF” value ([2]; 0.5 mg/kg) of the same compound?
Answer: 33.3%

Question: What about the “% INCIDENCE OF VT” value ([2]; 0.5 mg/kg) of the same compound?
Answer: 33.3%

Question: What about the “DEATHS DUE TO CONDUCTION BLOCK (60 MIN) Percentage” value ([2]; 0.5 mg/kg) of the same compound?
Answer: 100.0%

Question: What about the “DEATHS DUE TO TACHYARRHYTHMIA (60 MIN) Percentage” value ([2]; 0.5 mg/kg) of the same compound?
Answer: 00.0%

Question: And the protection against mortality ([2]; 2.5 mg/kg)?
Answer: no protection

Question: What about the “protection from deaths due to tachyarrhythmias” value ([2]; 2.5 mg/kg) of the same compound?
Answer: completely protected

Question: What about the “actual incidence of mortality” value ([2]; 2.5 mg/kg) of the same compound?
Answer: (6)

Question: What about the “% INCIDENCE OF MORTALITY” value ([2]; 2.5 mg/kg) of the same compound?
Answer: 60.0%

Question: And the “% INCIDENCE OF MORTALITY” value ([2]; 2.5 mg/kg, listed as d:l sotalol (ratio 1:1))?
Answer: 60%

Question: And the “deaths due to conduction block (60 min), actual incidence (value in parenthesis)” value ([2]; 2.5 mg/kg)?
Answer: (6)

Question: And the “deaths due to tachyarrhythmia (60 min), actual incidence (value in parenthesis)” value ([2]; 2.5 mg/kg)?
Answer: (0)*

Question: What about the “actual incidence of VF” value ([2]; 2.5 mg/kg) of the same compound?
Answer: (0)*

Question: What about the “actual incidence of VT” value ([2]; 2.5 mg/kg) of the same compound?
Answer: (0)*

Question: What about the “% INCIDENCE OF VF” value ([2]; 2.5 mg/kg) of the same compound?
Answer: 00.0%

Question: What about the “% INCIDENCE OF VT” value ([2]; 2.5 mg/kg) of the same compound?
Answer: 00.0%

Question: What about the “DEATHS DUE TO CONDUCTION BLOCK (60 MIN) Percentage” value ([2]; 2.5 mg/kg) of the same compound?
Answer: 100.0%

Question: And the “DEATHS DUE TO TACHYARRHYTHMIA (60 MIN) Percentage” value ([2]; 2.5 mg/kg)?
Answer: 00.0%

Question: And the “protection against ouabain induced VT” value ([2]; 0.1, 0.5 and 2.5 mg/kg dose)?
Answer: able to protect

Question: And the “protection against VF” value ([2]; 0.1 and 0.5 mg/kg doses)?
Answer: some protection

Question: What about the cause of deaths ([2]; as the dose was increased) of the same compound?
Answer: entirely due to conduction abnormalities

Question: And the “dose at which complete protection against VT was observed” value ([2]; guinea pig, in vivo)?
Answer: 2.5 mg/kg

Question: And the “dose that completely protected against VF” value ([2]; guinea pig, in vivo)?
Answer: 2.5 mg/kg

Question: What about the “minimum protective dose against ouabain induced VT” value ([2]; guinea pig, in vivo) of the same compound?
Answer: 0.1 mg/kg

Question: And the cause of deaths ([2]; lower doses)?
Answer: due to tachyarrhythmias

Question: And the protection against mortality ([2]; lower doses)?
Answer: reduced mortality

Question: What about the “deaths due to conduction block increased” value ([2]; no dose stated) of the same compound?
Answer: increased
